Reference: the kinase profiling compilation of Christmann-Franck et al. (2016)

How the values were obtained:
Experiment in all cases: KINOMEscan competition binding
Conditions in all cases: compound 10.0 µM
[1] = molecular target: ACVR2B (human) (UniProt Q13705)
[2] = molecular target: AKT1 (human) (UniProt P31749)
[3] = molecular target: ANKK1 (human) (UniProt Q8NFD2)
[4] = molecular target: CAMK2G (human) (UniProt Q13555)
[5] = molecular target: CDC42BPA (human) (UniProt Q5VT25)
[6] = test system: EGFR (human), P00533 [A750P; 747-749 del]
[7] = test system: EGFR (human), P00533 [P753S; 747-752 del]
[8] = molecular target: EPHA5 (human) (UniProt P54756)
[9] = molecular target: EPHA6 (human) (UniProt Q9UF33)
[10] = molecular target: FLT3 (human) (UniProt P36888)
[11] = test system: FLT3 (human), P36888 [D835Y]
[12] = molecular target: FYN (human) (UniProt P06241)
[13] = molecular target: GRK1 (human) (UniProt Q15835)
Chain of GRK1 (human) (Q15835 whole entry, looked up): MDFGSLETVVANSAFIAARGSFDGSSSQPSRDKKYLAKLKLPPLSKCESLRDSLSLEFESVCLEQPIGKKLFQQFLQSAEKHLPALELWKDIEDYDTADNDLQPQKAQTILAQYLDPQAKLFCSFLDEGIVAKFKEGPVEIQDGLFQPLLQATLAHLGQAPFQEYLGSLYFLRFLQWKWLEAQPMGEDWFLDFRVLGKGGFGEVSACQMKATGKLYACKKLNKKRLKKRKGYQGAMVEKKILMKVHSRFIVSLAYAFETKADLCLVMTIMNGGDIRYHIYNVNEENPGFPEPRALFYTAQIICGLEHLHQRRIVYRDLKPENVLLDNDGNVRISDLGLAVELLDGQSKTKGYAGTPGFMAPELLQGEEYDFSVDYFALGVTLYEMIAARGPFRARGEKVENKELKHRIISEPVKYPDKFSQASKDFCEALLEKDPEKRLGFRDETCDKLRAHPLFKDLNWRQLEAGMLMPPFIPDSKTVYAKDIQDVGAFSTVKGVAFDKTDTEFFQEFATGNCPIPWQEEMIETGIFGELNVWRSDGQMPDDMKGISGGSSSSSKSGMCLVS

[14] = molecular target: GRK7 (human) (UniProt Q8WTQ7)
[15] = molecular target: LATS2 (human) (UniProt Q9NRM7)
[16] = molecular target: MAPK11 (human) (UniProt Q15759)
[17] = molecular target: MAPK12 (human) (UniProt P53778)
[18] = test system: MET (human), P08581 [Y1235D]
[19] = molecular target: MYO3A (human) (UniProt Q8NEV4)
[20] = molecular target: NEK11 (human) (UniProt Q8NG66)
[21] = molecular target: NEK4 (human) (UniProt P51957)
[22] = molecular target: PHKG2 (human) (UniProt P15735)
[23] = molecular target: PIM2 (human) (UniProt Q9P1W9)
[24] = molecular target: PIP4K2B (human) (UniProt P78356)
[25] = molecular target: PKMYT1 (human) (UniProt Q99640)
Chain of PKMYT1 (human) (Q99640 whole entry, looked up): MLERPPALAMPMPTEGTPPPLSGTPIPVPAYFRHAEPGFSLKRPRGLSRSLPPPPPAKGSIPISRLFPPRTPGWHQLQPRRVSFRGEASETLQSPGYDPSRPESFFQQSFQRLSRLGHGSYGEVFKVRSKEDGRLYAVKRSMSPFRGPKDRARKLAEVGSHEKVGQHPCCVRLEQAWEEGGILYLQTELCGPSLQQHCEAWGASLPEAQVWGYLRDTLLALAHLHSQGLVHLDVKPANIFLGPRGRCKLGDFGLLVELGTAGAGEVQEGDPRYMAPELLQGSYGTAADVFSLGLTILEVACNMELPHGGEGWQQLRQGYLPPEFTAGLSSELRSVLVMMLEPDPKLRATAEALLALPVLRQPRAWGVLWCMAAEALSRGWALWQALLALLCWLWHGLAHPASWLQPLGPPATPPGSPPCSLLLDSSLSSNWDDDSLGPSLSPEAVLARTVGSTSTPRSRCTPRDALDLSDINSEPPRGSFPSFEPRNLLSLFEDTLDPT

[26] = molecular target: PKN1 (human) (UniProt Q16512)
Chain of PKN1 (human) (Q16512 whole entry, looked up): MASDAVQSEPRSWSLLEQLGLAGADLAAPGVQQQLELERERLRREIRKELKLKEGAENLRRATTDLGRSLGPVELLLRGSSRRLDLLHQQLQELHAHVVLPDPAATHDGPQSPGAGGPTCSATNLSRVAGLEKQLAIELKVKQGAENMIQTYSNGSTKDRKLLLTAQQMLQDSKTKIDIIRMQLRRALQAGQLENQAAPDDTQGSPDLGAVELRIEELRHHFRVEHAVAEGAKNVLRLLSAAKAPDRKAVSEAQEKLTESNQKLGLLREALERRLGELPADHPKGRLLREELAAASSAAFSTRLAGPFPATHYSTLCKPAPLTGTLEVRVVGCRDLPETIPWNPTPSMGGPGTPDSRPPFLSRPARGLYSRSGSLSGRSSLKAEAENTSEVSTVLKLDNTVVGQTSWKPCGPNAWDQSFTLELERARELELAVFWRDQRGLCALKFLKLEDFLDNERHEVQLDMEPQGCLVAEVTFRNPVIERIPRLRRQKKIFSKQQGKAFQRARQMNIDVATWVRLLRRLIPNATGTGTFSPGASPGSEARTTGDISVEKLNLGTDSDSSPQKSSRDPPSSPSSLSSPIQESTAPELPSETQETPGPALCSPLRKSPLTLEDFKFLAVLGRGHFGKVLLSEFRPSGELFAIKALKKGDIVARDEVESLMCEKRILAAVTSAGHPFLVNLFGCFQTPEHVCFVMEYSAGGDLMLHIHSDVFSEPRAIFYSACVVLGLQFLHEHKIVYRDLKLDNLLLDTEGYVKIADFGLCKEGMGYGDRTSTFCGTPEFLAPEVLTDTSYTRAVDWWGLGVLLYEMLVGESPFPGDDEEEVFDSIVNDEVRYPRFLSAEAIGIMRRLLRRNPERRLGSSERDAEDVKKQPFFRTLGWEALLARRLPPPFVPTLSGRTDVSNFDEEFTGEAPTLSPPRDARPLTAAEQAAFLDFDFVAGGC

[27] = molecular target: PRKG2 (human) (UniProt Q13237)
[28] = molecular target: PRPF4B (human) (UniProt Q13523)
[29] = test system: RET (human), P07949 [V804L]
[30] = molecular target: SBK1 (human) (UniProt Q52WX2)
[31] = molecular target: SIK3 (human) (UniProt Q9Y2K2)
[32] = molecular target: SRC (human) (UniProt P12931)
Chain of SRC (human) (P12931 whole entry, looked up): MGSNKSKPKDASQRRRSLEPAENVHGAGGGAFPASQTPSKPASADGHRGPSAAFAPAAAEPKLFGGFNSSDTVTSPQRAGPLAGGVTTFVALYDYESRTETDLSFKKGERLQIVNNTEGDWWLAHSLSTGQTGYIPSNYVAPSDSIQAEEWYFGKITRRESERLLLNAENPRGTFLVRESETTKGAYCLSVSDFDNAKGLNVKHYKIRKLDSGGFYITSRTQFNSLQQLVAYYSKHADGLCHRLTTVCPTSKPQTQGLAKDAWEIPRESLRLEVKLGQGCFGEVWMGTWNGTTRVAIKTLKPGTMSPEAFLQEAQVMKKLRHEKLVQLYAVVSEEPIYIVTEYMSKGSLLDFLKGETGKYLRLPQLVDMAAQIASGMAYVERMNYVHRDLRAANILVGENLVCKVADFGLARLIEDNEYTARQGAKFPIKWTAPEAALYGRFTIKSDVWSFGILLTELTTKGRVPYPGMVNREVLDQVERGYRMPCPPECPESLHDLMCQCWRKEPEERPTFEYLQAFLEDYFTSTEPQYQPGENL

[33] = molecular target: SRMS (human) (UniProt Q9H3Y6)
Chain of SRMS (human) (Q9H3Y6 whole entry, looked up): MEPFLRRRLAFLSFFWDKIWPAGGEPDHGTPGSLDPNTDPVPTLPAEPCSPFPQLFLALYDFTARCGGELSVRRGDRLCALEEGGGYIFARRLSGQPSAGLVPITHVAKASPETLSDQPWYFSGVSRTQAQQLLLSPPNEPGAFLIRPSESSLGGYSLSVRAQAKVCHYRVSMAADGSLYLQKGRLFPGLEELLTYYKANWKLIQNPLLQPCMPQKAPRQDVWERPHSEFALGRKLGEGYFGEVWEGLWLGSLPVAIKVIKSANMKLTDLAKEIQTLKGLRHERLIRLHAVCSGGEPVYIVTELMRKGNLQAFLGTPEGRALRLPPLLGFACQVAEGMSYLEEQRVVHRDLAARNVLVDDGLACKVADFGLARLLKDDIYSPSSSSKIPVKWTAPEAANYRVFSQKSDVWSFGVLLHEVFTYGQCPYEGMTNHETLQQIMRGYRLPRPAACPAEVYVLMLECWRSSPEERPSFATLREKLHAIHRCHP

[34] = molecular target: STK35 (human) (UniProt Q8TDR2)
[35] = molecular target: STK38 (human) (UniProt Q15208)
[36] = molecular target: STK4 (human) (UniProt Q13043)
[37] = molecular target: TAOK2 (human) (UniProt Q9UL54)
[38] = molecular target: TBK1 (human) (UniProt Q9UHD2)
[39] = molecular target: TTK (human) (UniProt P33981)
[40] = molecular target: TXK (human) (UniProt P42681)
[41] = molecular target: TYK2 JH2 pseudokinase (human) (UniProt P29597)
[42] = molecular target: YES1 (human) (UniProt P07947)

Chain of CAMK2G (human) (Q13555 whole entry, looked up): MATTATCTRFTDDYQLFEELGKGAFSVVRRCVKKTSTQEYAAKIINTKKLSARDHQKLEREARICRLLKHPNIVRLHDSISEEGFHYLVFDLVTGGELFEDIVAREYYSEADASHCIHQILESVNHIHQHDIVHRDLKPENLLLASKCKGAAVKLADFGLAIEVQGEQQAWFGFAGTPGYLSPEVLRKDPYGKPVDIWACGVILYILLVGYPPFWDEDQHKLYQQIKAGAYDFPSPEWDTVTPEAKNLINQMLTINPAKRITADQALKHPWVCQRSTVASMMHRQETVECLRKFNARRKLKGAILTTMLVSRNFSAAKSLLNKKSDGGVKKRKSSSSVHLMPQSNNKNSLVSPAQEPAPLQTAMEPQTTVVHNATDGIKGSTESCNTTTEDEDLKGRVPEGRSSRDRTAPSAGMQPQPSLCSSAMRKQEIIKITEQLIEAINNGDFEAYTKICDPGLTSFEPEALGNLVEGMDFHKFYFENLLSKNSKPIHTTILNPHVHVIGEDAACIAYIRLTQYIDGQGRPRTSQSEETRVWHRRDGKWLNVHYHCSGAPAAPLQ
Chain of ACVR2B (human) (Q13705 whole entry, looked up): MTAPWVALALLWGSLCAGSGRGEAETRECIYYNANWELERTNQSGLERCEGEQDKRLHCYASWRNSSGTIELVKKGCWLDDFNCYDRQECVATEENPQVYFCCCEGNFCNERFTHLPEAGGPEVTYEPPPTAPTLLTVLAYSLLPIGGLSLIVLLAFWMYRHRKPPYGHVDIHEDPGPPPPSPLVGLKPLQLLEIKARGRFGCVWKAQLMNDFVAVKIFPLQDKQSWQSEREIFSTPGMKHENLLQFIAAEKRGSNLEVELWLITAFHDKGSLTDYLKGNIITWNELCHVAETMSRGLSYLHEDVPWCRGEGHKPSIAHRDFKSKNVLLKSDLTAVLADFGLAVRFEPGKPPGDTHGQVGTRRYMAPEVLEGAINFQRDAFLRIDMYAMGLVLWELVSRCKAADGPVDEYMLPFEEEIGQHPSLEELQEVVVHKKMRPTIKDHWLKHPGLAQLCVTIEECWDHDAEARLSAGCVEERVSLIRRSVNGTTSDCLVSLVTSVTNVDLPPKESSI
Chain of ANKK1 (human) (Q8NFD2 whole entry, looked up): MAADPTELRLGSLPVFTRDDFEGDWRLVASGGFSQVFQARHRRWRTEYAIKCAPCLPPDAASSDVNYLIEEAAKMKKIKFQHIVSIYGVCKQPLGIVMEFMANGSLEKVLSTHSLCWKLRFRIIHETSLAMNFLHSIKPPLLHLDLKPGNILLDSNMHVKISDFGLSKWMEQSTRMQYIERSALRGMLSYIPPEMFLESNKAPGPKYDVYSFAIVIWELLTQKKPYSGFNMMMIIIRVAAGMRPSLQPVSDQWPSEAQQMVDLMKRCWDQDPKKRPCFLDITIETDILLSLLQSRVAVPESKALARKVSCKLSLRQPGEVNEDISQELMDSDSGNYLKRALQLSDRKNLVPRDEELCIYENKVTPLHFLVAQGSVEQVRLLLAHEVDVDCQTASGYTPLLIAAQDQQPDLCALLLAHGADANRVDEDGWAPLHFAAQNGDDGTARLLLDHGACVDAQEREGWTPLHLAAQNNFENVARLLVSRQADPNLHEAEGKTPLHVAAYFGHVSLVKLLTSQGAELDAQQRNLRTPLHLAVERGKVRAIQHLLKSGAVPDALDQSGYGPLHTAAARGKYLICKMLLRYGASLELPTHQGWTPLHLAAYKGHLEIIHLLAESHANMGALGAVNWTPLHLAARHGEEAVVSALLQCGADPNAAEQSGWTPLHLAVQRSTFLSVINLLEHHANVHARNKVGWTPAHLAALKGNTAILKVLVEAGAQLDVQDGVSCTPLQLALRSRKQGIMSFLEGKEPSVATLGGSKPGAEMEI

Cc1cc([C@@H](C)Nc2ccccc2C(=O)O)c2nc(N3CCOCC3)cc(=O)n2c1
kinase still bound, per cent of control [1]: 100% | kinase still bound, per cent of control [2]: 100% | kinase still bound, per cent of control [3]: 100% | kinase still bound, per cent of control [4]: 87% | kinase still bound, per cent of control [5]: 100% | kinase still bound, per cent of control [6]: 100% | kinase still bound, per cent of control [7]: 100% | kinase still bound, per cent of control [8]: 100% | kinase still bound, per cent of control [9]: 100% | kinase still bound, per cent of control [10]: 4.2% | kinase still bound, per cent of control [11]: 24% | kinase still bound, per cent of control [12]: 41% | kinase still bound, per cent of control [13]: 81% | kinase still bound, per cent of control [14]: 100% | kinase still bound, per cent of control [15]: 97% | kinase still bound, per cent of control [16]: 100% | kinase still bound, per cent of control [17]: 82% | kinase still bound, per cent of control [18]: 93% | kinase still bound, per cent of control [19]: 100% | kinase still bound, per cent of control [20]: 68% | kinase still bound, per cent of control [21]: 94% | kinase still bound, per cent of control [22]: 67% | kinase still bound, per cent of control [23]: 83% | kinase still bound, per cent of control [24]: 84% | kinase still bound, per cent of control [25]: 99% | kinase still bound, per cent of control [26]: 100% | kinase still bound, per cent of control [27]: 100% | kinase still bound, per cent of control [28]: 100% | kinase still bound, per cent of control [29]: 100% | kinase still bound, per cent of control [30]: 100% | kinase still bound, per cent of control [31]: 87% | kinase still bound, per cent of control [32]: 100% | kinase still bound, per cent of control [33]: 100% | kinase still bound, per cent of control [34]: 96% | kinase still bound, per cent of control [35]: 84% | kinase still bound, per cent of control [36]: 72% | kinase still bound, per cent of control [37]: 89% | kinase still bound, per cent of control [38]: 100% | kinase still bound, per cent of control [39]: 88% | kinase still bound, per cent of control [40]: 100% | kinase still bound, per cent of control [41]: 95% | kinase still bound, per cent of control [42]: 100%
